Patent US20240124417A1, “COMPOUNDS USEFUL AS IMMUNOMODULATORS” (Bristol-Myers Squibb Company, priority 2019, published 2024)

Molecular target: T1, PD-1/PD-L1 (Homo sapiens, UniProt Q9NZQ7)
T1 construct: TVMV protease site linker (C); made in house; host or cells: HEK293T cells
Assay: PD-1/PD-L1 Homogenous Time-Resolved Fluorescence (HTRF) binding assay
Settings: PD-L1-His 10 nM, PD-1-Ig 20 nM
In short: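 Time-resolved FRET read-out using Eu-cryptate anti-Ig (1 nM final) and APC anti-His (20 nM final). Tagged extracellular domains were used in BSA/Tween-20-supplemented dPBS, with compound pre-incubated 15 min with PD-L1-His (10 nM) before PD-1-Ig (20 nM) was added for 15 min. Other human pairs: PD-L2-His 5 nM with PD-1-Ig 20 nM; PD-L1-Ig 10 nM with CD80-His 100 nM.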

T1 sequence (Q9NZQ7 18-239): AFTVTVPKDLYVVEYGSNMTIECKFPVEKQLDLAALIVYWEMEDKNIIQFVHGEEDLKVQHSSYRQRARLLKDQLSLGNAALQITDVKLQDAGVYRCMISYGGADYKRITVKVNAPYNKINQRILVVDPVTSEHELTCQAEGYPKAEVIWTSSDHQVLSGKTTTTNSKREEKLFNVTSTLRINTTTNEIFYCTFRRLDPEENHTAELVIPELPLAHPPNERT

Row | IC50 [nM] | SMILES
1 | 75.9 | Cc1c(COc2cc(OCc3cncc(C#N)c3)c(CNCc3ncccn3)cc2Cl)cccc1-c1cccc(OCC2CCCN(CCC(F)(F)F)C2)c1Cl (stereo not drawn) [Example 2066, 5-((4-chloro-5-((2′-chloro-2-methyl-3′-((1-(3,3,3-trifluoropropyl)piperidin-3-yl)methoxy)-[1,1′-biphenyl]-3-yl)methoxy)-2-(((pyrimidin-2-ylmethyl)amino)methyl)phenoxy)methyl)nicotinonitrile]
2 | 89.6 | Cc1c(COc2cc(OCc3cncc(C#N)c3)c(CNCc3cn[nH]n3)cc2Cl)cccc1-c1cccc(OCC2CCCN(CCC(F)(F)F)C2)c1Cl (stereo not drawn) [Example 2068, 5-((2-((((2H-1,2,3-triazol-4-yl)methyl)amino)methyl)-4-chloro-5-((2′-chloro-2-methyl-3′-((1-(3,3,3-trifluoropropyl)piperidin-3-yl)methoxy)-[1,1′-biphenyl]-3-yl)methoxy)phenoxy)methyl)nicotinonitrile]
3 | 2.3 | Cc1c(COc2cc(OCc3cncc(C#N)c3)c(CN(C)Cc3cccnc3)cc2Cl)cccc1-c1cccc(OCCCN2CC[C@@H](O)C2)c1C [Example 2501, (R)-5-((4-chloro-5-((3′-(3-(3-hydroxypyrrolidin-1-yl)propoxy)-2,2′-dimethyl-[1,1′-biphenyl]-3-yl)methoxy)-2-((methyl(pyridin-3-ylmethyl)amino)methyl)phenoxy)methyl)nicotinonitrile]
4 | 0.9 | Cc1c(COc2cc(OCc3cncc(C#N)c3)c(CN3CCc4c(ncn4C)C3)cc2Cl)cccc1-c1cccc(OCCCN2CC[C@@H](O)C2)c1C [Example 2502]
5 | 3.9 | Cc1nc2c(s1)CN(Cc1cc(Cl)c(OCc3cccc(-c4cccc(OCCCN5CC[C@@H](O)C5)c4C)c3C)cc1OCc1cncc(C#N)c1)CC2 [Example 2503, (R)-5-((4-chloro-5-((3′-(3-(3-hydroxypyrrolidin-1-yl)propoxy)-2,2′-dimethyl-[1,1′-biphenyl]-3-yl)methoxy)-2-((2-methyl-6,7-dihydrothiazolo[5,4-c]pyridin-5(4H)yl)methyl)phenoxy)methyl)nicotinonitrile]
6 | 1.8 | Cc1ncsc1CCNCc1cc(Cl)c(OCc2cccc(-c3cccc(OCCCN4CC[C@@H](O)C4)c3C)c2C)cc1OCc1cncc(C#N)c1 [Example 2504, (R)-5-((4-chloro-5-((3′-(3-(3-hydroxypyrrolidin-1-yl)propoxy)-2,2′-dimethyl-[1,1′-biphenyl]-3-yl)methoxy)-2-(((2-(4-methylthiazol-5-yl)ethyl)amino)methyl)phenoxy)methyl)nicotinonitrile]
7 | 6.7 | Cc1c(COc2cc(OCc3cncc(C#N)c3)c(CNCCc3nc4ccccc4[nH]3)cc2Cl)cccc1-c1cccc(OCCCN2CC[C@@H](O)C2)c1C [Example 2505, (R)-5-((2-(((2-(1H-benzo[d]imidazol-2-yl)ethyl)amino)methyl)-4-chloro-5-((3′-(3-(3 hydroxypyrrolidin-1-yl)propoxy)-2,2′-dimethyl-[1,1′-biphenyl]-3yl)methoxy)phenoxy)methyl)nicotinonitrile]
8 | 0.4 | Cc1c(COc2cc(OCc3cncc(C#N)c3)c(CNCCc3cscn3)cc2Cl)cccc1-c1cccc(OCCCN2CC[C@@H](O)C2)c1C [Example 2506, (R)-5-((4-chloro-5-((3′-(3-(3-hydroxypyrrolidin-1-yl)propoxy)-2,2′-dimethyl-[1,1′-biphenyl]-3-yl)methoxy)-2-(((2-(thiazol-4-yl)ethyl)amino)methyl)phenoxy)methyl)nicotinonitrile]
9 | 1.7 | Cc1c(COc2cc(OCc3cncc(C#N)c3)c(CN(C)CCc3cscn3)cc2Cl)cccc1-c1cccc(OCCCN2CC[C@@H](O)C2)c1C [Example 2507, (R)-5-((4-chloro-5-((3′-(3-(3-hydroxypyrrolidin-1-yl)propoxy)-2,2′-dimethyl-[1,1′-biphenyl]-3-yl)methoxy)-2-((methyl(2-(thiazol-4-yl)ethyl)amino)methyl)phenoxy)methyl)nicotinonitrile]
